Reference: patent US12234231B2, “EIF4E inhibitors and uses thereof” (PIC Therapeutics, Inc., priority 2021, dated 2025)

Target: T1, Human eIF4E (aa 28-217) (Homo sapiens, UniProt P06730)
T1 construct: Human eIF4E (aa 28-217) with a C-terminal His-tag; made in house
Experiment: Human eIF4E/4G2 binding assay (TR-FRET)
Conditions: purified eIF4E with biotin labeled 4G2 peptide, 4 hours preincubation at room temperature
Description: Example 3. Compound Testing in Human eIF4E/4G2 Binding Assay
1004461 Human eIF4E (aa 28-217) with a C-terminal His-tag was expressed in E. coli in inclusion bodies. The protein was solubilized with 8 M urea and purified under denaturing conditions using nickel-charged HisTrap HP columns (GE Healthcare). The purified protein was then refolded by diluting in 20 mM Hepes pH 7.0, 0.5 M NaCl, 1 mM DTT, 1 mM EDTA, 0.5 M arginine plus 6 M urea, and then dialyzing overnight into the same buffer without the urea. The protein was further dialyzed into 20 mM Hepes, pH 6.5, 50 mM NaCl, 1 mM EDTA, 1 mM DTT, and concentrated using Hitrap SP sepharose FF columns (GE Healthcare). The concentrated protein was dialyzed into 20 mM Hepes, pH 7.0, 0.5M NaCl, 5 mM DTT and 10% glycerol, and stored at −80° C. until use.
Test compounds (3.43 mM stock in DMSO) were diluted 2-fold in series in DMSO (10 concentration points). Compound solutions (1.2 μl/well) were added into black 384-well polypropylene microplates (Matrix, Thermal Scientific). Twenty-two microliters per well of Assay Buffer (50 mM NaPi, pH 6.5, 50 mM KCl, 1 mM DTT and 0.5 mg/ml gamma globulin) and eight microliters per well of 82.5 nM purified eIF4E in Assay Buffer were added. The samples were incubated at room temperature (20-23° C.) for 4 hours. Biotin labeled 4G2 peptide (Ac-Lys-Gln-Tyr-Asp-Arg-Glu-Phe-Leu-Leu-Asp-Phe-Gln-Phe-Met-Pro-Lys(Aha-Bio)-NH2, 1.75 μM stock in DMSO) was diluted to 0.14 μM in Assay Buffer (without DTT) and 5 μl/well was added. The samples were incubated at room temperature for 20 min. Five microliters per well of 6.4 nM Eu-streptavidin (Eu-SA, Perkin Elmer) and 80 nM Allophycocyanin (APC)-anti His antibody (Columbia Biosciences) in Assay Buffer (without DTT) were then added and the samples were incubated at room temperature for 20 min.
Assay signals were monitored by reading excitation at 340 nm and emission fluorescence at 615 nm and 665 nm on an Envision reader (Perkin Elmer). Normalized TR-FRET (time-resolved fluorescence resonance energy transfer) assay signal (Rn) was calculated by the formula: Rn=[(A−Ba−C×D)/(D−Bd)]×(Dc−Bd) • Where A is the fluorescence intensity of the sample at 665 nm, • D is the fluorescence intensity of the sample at 615 nm, • Ba and Bd are plate backgrounds at 665 nm and 615 nm, respectively, • Dc is the fluorescence intensity of 0.78 nM Eu-SA in the assay buffer at 615 nm
The cross-talk factor (C) is determined by the following formula: C=(Ac−Ba)/(Dc−Bd) Where Ac is the fluorescence intensity of 0.78 nM Eu-SA in the assay buffer at 665 nm.
IC50 values were calculated using xLFit program (IDBS). Table 2 below lists EC50 of some compounds, wherein A represents IC50≤0.5 μM; B represents 0.5 uM<IC50≤1 μM; and C represents IC50>1 μM.

T1 sequence (P06730 28-217): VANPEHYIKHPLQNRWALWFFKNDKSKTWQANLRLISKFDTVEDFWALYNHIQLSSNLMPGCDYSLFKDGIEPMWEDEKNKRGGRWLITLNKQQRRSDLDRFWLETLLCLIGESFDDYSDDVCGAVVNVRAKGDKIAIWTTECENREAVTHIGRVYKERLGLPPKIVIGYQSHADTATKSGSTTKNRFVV

Row | IC50 [nM] | Compound
1 | 500 to 1000 | COCCOc1ccc(-c2nc(Nc3ncc(-c4cccs4)cc3C(=O)O)sc2CC(C)C)cc1F [I-30]
2 | > 1000 | CNCCNC(=O)c1cc(-c2cccs2)cnc1Nc1nc(-c2ccc(OCCOC)c(F)c2)c(CC(C)C)s1 [I-56, 2-((4-(3-fluoro-4-(2-methoxyethoxy)phenyl)-5-isobutylthiazol-2-yl)amino)-N-(2-(methylamino)ethyl)-5-(thiophen-2-yl)nicotinamide]
3 | ≤ 500 | COCCOc1ccc(-c2nc(Nc3cnc(-c4cccs4)cc3C(=O)O)sc2Cc2ccccc2)cc1F [I-63]
4 | ≤ 500 | COCCOc1cc(-c2nc(Nc3ncc(-c4cccs4)cc3C(=O)O)sc2CC(C)(C)C)ccc1Cl [I-95]
